{
  "source": "paper PMC10818749",
  "about": "“Toxicity Studies of Cardiac-Targeting Peptide Reveal a Robust Safety Profile” (Pharmaceutics, 2024)",
  "key": {"HEK-Kir2.1": {"target": "T1, HEK-Kir2.1 (Homo sapiens, UniProt P63252)", "T1 construct": "host or cells: HEK", "T1 sequence (P63252 whole entry)": "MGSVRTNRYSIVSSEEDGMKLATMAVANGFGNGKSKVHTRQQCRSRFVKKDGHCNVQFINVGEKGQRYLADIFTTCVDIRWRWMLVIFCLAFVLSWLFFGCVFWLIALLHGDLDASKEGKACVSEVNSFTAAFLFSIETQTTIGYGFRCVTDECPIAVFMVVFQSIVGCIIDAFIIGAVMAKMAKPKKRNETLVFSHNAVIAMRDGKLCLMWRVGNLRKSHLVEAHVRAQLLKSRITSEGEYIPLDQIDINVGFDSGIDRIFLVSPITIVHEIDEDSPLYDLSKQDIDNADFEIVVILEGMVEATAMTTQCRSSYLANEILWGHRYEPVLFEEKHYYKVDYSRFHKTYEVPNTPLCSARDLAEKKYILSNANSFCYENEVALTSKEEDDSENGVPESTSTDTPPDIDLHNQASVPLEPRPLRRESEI", "format": "cell-based", "settings": "CTP 0.1 to 30 µM; HEK cells; step to -120mV; 0.1% Pluronic F-68"}, "HEK-Cav1.2": {"target": "HEK-Cav1.2 (Homo sapiens, UniProt Q13936)", "sequence (Q13936 whole entry)": "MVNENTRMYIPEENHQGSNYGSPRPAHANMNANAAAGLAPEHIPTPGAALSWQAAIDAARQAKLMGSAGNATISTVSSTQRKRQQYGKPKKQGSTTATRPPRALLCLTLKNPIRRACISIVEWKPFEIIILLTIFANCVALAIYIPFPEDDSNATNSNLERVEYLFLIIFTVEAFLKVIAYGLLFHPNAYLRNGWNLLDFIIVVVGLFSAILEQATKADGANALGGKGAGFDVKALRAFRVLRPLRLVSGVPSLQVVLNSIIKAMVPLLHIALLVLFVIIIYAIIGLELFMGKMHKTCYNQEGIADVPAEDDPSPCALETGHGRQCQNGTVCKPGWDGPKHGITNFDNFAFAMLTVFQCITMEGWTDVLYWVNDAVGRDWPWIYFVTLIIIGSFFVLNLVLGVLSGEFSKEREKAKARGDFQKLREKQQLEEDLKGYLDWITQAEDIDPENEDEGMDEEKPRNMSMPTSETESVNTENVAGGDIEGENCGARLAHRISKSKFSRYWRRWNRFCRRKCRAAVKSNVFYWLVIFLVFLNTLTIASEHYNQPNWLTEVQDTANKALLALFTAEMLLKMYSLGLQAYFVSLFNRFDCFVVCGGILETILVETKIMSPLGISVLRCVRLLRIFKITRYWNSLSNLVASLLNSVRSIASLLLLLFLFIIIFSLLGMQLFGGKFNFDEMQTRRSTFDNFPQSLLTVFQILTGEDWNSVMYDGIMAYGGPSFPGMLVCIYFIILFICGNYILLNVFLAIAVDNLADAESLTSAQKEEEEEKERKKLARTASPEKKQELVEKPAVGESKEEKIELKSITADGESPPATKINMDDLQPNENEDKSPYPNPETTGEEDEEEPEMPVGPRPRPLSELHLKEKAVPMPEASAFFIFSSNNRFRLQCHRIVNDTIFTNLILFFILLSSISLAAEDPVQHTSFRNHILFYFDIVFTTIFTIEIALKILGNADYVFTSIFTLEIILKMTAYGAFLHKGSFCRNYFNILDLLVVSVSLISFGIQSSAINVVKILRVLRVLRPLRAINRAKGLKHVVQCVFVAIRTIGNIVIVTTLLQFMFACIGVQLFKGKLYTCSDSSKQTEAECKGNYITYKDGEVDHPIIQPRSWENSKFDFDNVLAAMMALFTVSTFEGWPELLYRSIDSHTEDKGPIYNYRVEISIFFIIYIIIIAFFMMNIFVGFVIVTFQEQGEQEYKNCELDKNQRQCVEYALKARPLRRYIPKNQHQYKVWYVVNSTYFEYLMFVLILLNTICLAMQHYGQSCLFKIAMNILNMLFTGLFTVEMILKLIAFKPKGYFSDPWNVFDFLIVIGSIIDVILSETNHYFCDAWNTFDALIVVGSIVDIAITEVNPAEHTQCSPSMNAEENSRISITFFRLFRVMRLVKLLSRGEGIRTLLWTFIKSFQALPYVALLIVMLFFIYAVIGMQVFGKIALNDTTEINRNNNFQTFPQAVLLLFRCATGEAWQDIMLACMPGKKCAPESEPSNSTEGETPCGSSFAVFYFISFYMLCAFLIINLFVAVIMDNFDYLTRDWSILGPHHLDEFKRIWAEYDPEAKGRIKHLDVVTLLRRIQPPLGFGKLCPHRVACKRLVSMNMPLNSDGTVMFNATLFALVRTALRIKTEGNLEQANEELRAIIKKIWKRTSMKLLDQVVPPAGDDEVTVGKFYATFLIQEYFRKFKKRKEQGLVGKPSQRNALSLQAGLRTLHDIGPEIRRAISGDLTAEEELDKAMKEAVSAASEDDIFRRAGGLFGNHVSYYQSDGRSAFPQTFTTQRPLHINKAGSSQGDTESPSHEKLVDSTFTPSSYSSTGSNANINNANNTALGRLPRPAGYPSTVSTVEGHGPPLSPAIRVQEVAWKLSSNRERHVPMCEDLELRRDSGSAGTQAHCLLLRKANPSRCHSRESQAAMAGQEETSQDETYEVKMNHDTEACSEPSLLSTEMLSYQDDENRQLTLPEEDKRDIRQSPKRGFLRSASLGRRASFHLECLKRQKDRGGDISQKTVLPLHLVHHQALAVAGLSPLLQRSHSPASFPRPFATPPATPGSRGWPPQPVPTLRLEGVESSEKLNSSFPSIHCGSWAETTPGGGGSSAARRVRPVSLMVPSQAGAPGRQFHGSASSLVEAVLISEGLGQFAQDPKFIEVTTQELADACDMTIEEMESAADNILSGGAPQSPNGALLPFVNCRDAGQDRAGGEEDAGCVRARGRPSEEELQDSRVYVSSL", "sequence (Q08289 whole entry partner)": "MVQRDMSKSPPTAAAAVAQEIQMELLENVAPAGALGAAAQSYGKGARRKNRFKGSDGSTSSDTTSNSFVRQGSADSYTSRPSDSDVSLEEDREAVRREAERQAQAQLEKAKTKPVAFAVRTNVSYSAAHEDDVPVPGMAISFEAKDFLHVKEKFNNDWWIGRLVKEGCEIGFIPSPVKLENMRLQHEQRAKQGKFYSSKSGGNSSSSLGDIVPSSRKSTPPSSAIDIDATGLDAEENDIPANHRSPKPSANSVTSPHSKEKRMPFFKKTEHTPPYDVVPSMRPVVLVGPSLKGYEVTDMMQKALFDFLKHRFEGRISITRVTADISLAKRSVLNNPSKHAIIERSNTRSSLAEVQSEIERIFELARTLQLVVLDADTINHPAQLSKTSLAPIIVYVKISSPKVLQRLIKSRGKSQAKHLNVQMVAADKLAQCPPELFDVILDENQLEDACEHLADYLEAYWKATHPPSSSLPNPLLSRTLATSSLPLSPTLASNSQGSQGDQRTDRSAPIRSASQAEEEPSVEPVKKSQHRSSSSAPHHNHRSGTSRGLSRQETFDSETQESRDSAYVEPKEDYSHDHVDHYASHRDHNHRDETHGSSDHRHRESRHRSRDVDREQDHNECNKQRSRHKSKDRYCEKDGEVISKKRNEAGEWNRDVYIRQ", "sequence (P54289 25-946 partner limits assumed)": "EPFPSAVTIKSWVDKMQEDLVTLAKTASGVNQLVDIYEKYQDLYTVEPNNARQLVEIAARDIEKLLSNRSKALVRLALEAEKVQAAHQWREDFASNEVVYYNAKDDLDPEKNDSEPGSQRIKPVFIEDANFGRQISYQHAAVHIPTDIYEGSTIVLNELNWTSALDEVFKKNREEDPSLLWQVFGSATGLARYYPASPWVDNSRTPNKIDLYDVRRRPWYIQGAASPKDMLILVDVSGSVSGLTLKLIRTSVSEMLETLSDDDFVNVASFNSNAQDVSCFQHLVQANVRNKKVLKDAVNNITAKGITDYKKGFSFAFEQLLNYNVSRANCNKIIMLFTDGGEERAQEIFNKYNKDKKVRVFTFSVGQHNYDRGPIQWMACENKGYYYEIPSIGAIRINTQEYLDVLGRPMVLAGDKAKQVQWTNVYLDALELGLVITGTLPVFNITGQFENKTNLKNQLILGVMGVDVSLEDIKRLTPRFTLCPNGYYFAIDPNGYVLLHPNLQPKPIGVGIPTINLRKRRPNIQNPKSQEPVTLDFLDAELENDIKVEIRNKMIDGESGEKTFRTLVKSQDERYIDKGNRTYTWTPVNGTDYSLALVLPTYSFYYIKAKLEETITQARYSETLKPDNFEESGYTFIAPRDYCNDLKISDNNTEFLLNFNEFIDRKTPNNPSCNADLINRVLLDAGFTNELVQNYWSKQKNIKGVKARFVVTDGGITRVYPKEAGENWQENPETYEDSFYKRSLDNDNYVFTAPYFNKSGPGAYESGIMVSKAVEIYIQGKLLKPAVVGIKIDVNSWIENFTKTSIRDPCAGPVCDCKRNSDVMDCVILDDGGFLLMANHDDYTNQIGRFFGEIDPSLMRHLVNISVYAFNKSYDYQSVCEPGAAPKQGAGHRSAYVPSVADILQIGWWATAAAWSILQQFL", "sequence (P54289 947-1103 partner limits assumed)": "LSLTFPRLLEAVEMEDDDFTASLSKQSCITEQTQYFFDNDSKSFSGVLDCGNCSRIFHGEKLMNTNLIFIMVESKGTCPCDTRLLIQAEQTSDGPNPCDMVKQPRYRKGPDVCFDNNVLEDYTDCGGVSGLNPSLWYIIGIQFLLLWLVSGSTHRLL", "settings": "CTP 0.1 to 30 µM; HEK cells; -100mV to +20mV; 0.1% Pluronic F-68"}, "seven ion channels": {"system": "seven ion channels", "experiment": "Eurofins Ion Channel Cardiac Profiler Panel (all seven channels)", "format": "cell-based, human", "settings": "CTP 0.1 to 30 µM"}},
  "note": "“Also recorded” adds a separate entry of the source. Ends that are not written are not given here.",
  "data": [
    {"sequence": "APWHLSSQYSRT [CTP]", "values": [
      {"measurement": "Estimated IC50", "setting": "HEK-Kir2.1", "result": "N/C (Not calculable, inhibition >25% was not observed.)"},
      {"measurement": "Estimated IC50", "setting": "HEK-Cav1.2", "result": "N/C (Not calculable, inhibition >25% was not observed.)"},
      {"measurement": "IC50 values", "setting": "seven ion channels; seven ion channels", "result": "not calculable"},
      {"measurement": "inhibition/activation across all seven ion channels", "setting": "seven ion channels; vs control substances", "result": "no inhibition/activation was observed; also recorded: did not inhibit the activation of any tested"}
    ]}
  ]
}
